Data published in patent US5430169A, “Method for preparation of sphingoid bases” (The United States of America represented by the Department …, priority 1994, dated 1995).
Entries after “also recorded” stand apart in the source; their conditions may differ.

Legend:
[1] = test system: S-1-P aldolase; assay: time dependent (irreversible) inhibition of S-1-P aldolase; format: biochemical; settings: mode of inhibition, in words
[2] = molecular target: T1, rat liver aldolase (Rattus norvegicus, UniProt Q8CHN6); assay: in vitro biological evaluation: inhibition of rat liver aldolase; format: biochemical; settings: read-out: IC50, inhibited rat liver aldolase
T1 construct: from tissue; host or cells: rat liver
T1 sequence (Q8CHN6 1-568): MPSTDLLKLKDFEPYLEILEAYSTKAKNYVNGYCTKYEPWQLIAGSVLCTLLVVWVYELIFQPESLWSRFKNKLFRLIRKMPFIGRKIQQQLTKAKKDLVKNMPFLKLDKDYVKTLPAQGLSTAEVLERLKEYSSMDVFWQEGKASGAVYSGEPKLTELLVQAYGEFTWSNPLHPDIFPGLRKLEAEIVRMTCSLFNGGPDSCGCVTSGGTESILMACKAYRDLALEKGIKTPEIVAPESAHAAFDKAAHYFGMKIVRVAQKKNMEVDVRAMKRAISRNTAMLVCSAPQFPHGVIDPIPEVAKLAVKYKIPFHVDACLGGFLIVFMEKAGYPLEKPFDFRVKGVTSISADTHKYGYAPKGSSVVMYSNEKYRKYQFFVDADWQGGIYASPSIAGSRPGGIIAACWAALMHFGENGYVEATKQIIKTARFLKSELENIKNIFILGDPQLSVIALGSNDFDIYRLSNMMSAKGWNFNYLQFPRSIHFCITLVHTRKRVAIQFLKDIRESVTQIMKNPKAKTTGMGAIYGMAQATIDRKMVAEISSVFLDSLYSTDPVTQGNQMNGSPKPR

[3] = test system: permeabilized smooth muscle cells; settings: IP3-sensitive and IP3-insensitive pools; cited from earlier work
[4] = test system: Swiss 3T3 fibroblasts; settings: in words; cited from earlier work
[5] = test system: permeabilized cells; settings: cellular level / environments with other cellular components, e.g.; cited from earlier work
[6] = test system: S-1-P aldolase; settings: mode of inhibition, in words; cited from earlier work
[7] = test system: protein kinase C; settings: in words; cited from earlier work

Row | Structure (SMILES) | time dependent (irreversible) inhibitor of S-1-P aldolase [1] | IC50 [2] | other results
1 | C=CC(N)(COP(=O)(O)O)C(O)CCCCCCCCCCCCCCC (stereo not shown) [Example 4, 2-vinyl dihydrosphingosine-1-phosphate] | time dependent (irreversible) inhibitor | 2400 nM | 
2 | CCCCCCCCCCCCC/C=C/[C@@H](O)[C@@H](N)COP(=O)(O)O [Example S-1-P, sphingosine-1-phosphate] |  |  | translocation of calcium from intracellular stores [3]: rapid translocation of calcium from intracellular stores; mitogenic effect in Swiss 3T3 fibroblasts [4]: very potent mitogen
3 | CCCCCCCCCCCCCCCC(O)C(N)CP(=O)(O)O (stereo not shown) [DS-1-P, dihydrosphingosine-1-phosphonate] |  |  | toxicity [5]: highly toxic; also recorded: well known toxin; inhibition of the S-1-P aldolase reaction [6]: competitive inhibition
4 | C=CC(N)COP(=O)(O)O (stereo not shown) [Example 5, 2-vinyl ethanolamine-O-phosphate] | time dependent (irreversible) inhibitor | 1100 nM | 
5 | CCCCCCCCCCCCCCCC(O)C(COP(=O)(O)O)NN (stereo not shown) [Example 3, 2-hydrazino deamino dihydrosphingosine-1-phosphate] |  | 800 nM | 
6 | CCCCCCCCCCCCC/C=C/[C@@H](O)[C@@H](N)CO [sphingosine] |  |  | inhibition of protein kinase C [7]: potent and specific inhibitor
